Data reported in US10407383B2, “Cyclopentene and cyclopentadiene compounds for controlling invertebrate pests” (BASF SE, priority 2014, dated 2019).

Tests used:
Type in all cases: in vivo
[1] = test system: boll weevil (Anthonomus grandis); assay: Boll weevil (Anthonomus grandis), insect diet with eggs in 24-well plates; conditions: 120 h, egg and larval mortality, 5 days, read-out: mortality in comparison with untreated controls
Method: B.4 Boll Weevil (Anthonomus grandis)
For evaluating control of boll weevil (Anthonomus grandis) the test unit consisted of 24-well-microtiter plates containing an insect diet and 20-30 A. grandis eggs.
The compounds were formulated using a solution containing 75% v/v water and 25% v/v DMSO. Different concentrations of formulated compounds were sprayed onto the insect diet at 20 μl, using a custom built micro atomizer, at two replications.
After application, microtiter plates were incubated at about 23±1° C. and about 50±5% relative humidity for 5 days. Egg and larval mortality was then visually assessed.

[2] = test system: Diamond Back Moth (Plutella Xylostella); assay: Diamond back moth (Plutella xylostella), cabbage leaf dip, 3rd instar larvae; conditions: foliar, 72 hours after treatment, read-out: mortality in comparison with untreated controls
Method: B.6 Diamond Back Moth (Plutella Xylostella)
The active compound was dissolved at the desired concentration in a mixture of 1:1 (vol:vol) distilled water:aceteone. Surfactant (Kinetic HV) was added at a rate of 0.01% (vol/vol). The test solution was prepared at the day of use.
Leaves of cabbage were dipped in test solution and air-dried. Treated leaves were placed in petri dishes lined with moist filter paper and inoculated with ten 3rd instar larvae. Mortality was recorded 72 hours after treatment. Feeding damages were also recorded using a scale of 0-100%.

[3] = test system: Orchid Thrips (Dichromothrips Corbetti); assay: Orchid thrips (Dichromothrips corbetti), floral-immersion technique; conditions: adult thrips, 72 hours after treatment, read-out: mortality in comparison with untreated controls
Method: B.7 Orchid Thrips (Dichromothrips Corbetti)
Dichromothrips corbetti adults used for bioassay were obtained from a colony maintained continuously under laboratory conditions. For testing purposes, the test compound was diluted in a 1:1 mixture of acetone:water (vol:vol), plus Kinetic HV at a rate of 0.01% v/v.
Thrips potency of each compound was evaluated by using a floral-immersion technique. All petals of individual, intact orchid flowers were dipped into treatment solution and allowed to dry in Petri dishes. Treated petals were placed into individual re-sealable plastic along with about 20 adult thrips. All test arenas were held under continuous light and a temperature of about 28° C. for duration of the assay. After 3 days, the numbers of live thrips were counted on each petal. The percent mortality was recorded 72 hours after treatment.

[4] = test system: Mediterranean fruitfly (Ceratitis capitata); assay: Mediterranean fruitfly (Ceratitis capitata), insect diet with eggs in microtiter plates; conditions: 120 h, egg and larval mortality, 5 days, read-out: mortality in comparison with untreated controls
Method: B.5 Mediterranean Fruitfly (Ceratitis capitata)
For evaluating control of Mediterranean fruitfly (Ceratitis capitata) the test unit consisted of microtiter plates containing an insect diet and 50-80 C. capitata eggs.
The compounds were formulated using a solution containing 75% v/v water and 25% v/v DMSO. Different concentrations of formulated compounds were sprayed onto the insect diet at 5 μl, using a custom built micro atomizer, at two replications.
(§1) After application, microtiter plates were incubated at about 28±1° C. and about 80±5% relative humidity for 5 days. Egg and larval mortality was then visually assessed.

[5] = test system: vetch aphid (Megoura viciae); assay: Vetch aphid (Megoura viciae), contact or systemic, broad bean leaf disks in 24-well plates; conditions: foliar, 120 h, adult aphids on sprayed leaf disks, 5 days, read-out: mortality in comparison with untreated controls
Method: B.2 Vetch Aphid (Megoura viciae)
For evaluating control of vetch aphid (Megoura viciae) through contact or systemic means the test unit consisted of 24-well-microtiter plates containing broad bean leaf disks.
The compounds were formulated using a solution containing 75% v/v water and 25% v/v DMSO. Different concentrations of formulated compounds were sprayed onto the leaf disks at 2.5 μl, using a custom built micro atomizer, at two replications.
After application, the leaf disks were air-dried and 5-8 adult aphids placed on the leaf disks inside the microtiter plate wells. The aphids were then allowed to suck on the treated leaf disks and incubated at about 23±1° C. and about 50±5% relative humidity for 5 days. Aphid mortality and fecundity was then visually assessed.

[6] = test system: Rice Green Leafhopper (Nephotettix virescens); assay: Rice green leafhopper (Nephotettix virescens), sprayed potted rice seedlings; conditions: adults, after 72 hours, read-out: mortality in comparison with untreated controls
Method: B.8 Rice Green Leafhopper (Nephotettix virescens)
Rice seedlings were cleaned and washed 24 hours before spraying. The active compounds were formulated in 1:1 acetone:water (vol:vol), and 0.01% vol/vol surfactant (Kinetic HV) was added. Potted rice seedlings were sprayed with 5-6 ml test solution, air dried, covered with Mylar cages and inoculated with 10 adults. Treated rice plants were kept at about 28-29° C. and relative humidity of about 50-60%. Percent mortality was recorded after 72 hours.

[7] = test system: Red Spider Mite (Tetranychus kanzawai); assay: Red spider mite (Tetranychus kanzawai), sprayed potted cowpea beans; conditions: 72 hours after treatment, read-out: mortality in comparison with untreated controls
Method: B.9 Red Spider Mite (Tetranychus kanzawai)
The active compound was dissolved at the desired concentration in a mixture of 1:1 (vol:vol) distilled water:acetone. Surfactant (Kinetic HV) was added at a rate of 0.01% (vol/vol). The test solution was prepared at the day of use.
Potted cowpea beans of 4-5 days of age were cleaned with tap water and sprayed with 1-2 ml of the test solution using air driven hand atomizer. The treated plants were allowed to air dry and afterwards inoculated with 30 or more mites by clipping a cassava leaf section from rearing population. Treated plants were placed inside a holding room at about 25-27° C. and about 50-60% relative humidity. Percent mortality was assessed 72 hours after treatment.

[8] = test system: tobacco budworm (Heliothis virescens); assay: Tobacco budworm (Heliothis virescens), insect diet with eggs in 96-well plates; conditions: 120 h, egg and larval mortality, 5 days, read-out: mortality in comparison with untreated controls
Method: B.3 Tobacco Budworm (Heliothis virescens)
For evaluating control of tobacco budworm (Heliothis virescens) the test unit consisted of 96-well-microtiter plates containing an insect diet and 15-25 H. virescens eggs.
The compounds were formulated using a solution containing 75% v/v water and 25% v/v DMSO. Different concentrations of formulated compounds were sprayed onto the insect diet at 10 μl, using a custom built micro atomizer, at two replications.
as §1

[9] = test system: green peach aphid (Myzus persicae); assay: Green peach aphid (Myzus persicae), systemic, 96-well plates with liquid artificial diet under membrane; conditions: 72 h, adult aphids on treated diet, 3 days, read-out: mortality in comparison with untreated controls
Description: B.1 Green Peach Aphid (Myzus persicae)
For evaluating control of green peach aphid (Myzus persicae) through systemic means the test unit consisted of 96-well-microtiter plates containing liquid artificial diet under an artificial membrane.
The compounds were formulated using a solution containing 75% v/v water and 25% v/v DMSO. Different concentrations of formulated compounds were pipetted into the aphid diet, using a custom built pipetter, at two replications.
After application, 5-8 adult aphids were placed on the artificial membrane inside the microtiter plate wells. The aphids were then allowed to suck on the treated aphid diet and incubated at about 23±1° C. and about 50±5% relative humidity for 3 days. Aphid mortality and fecundity was then visually assessed.

O=C(NC1CS(=O)(=O)C1)c1ccc(C2=CCC(c3cc(Cl)cc(Cl)c3)(C(F)(F)F)C2)cc1Cl (stereo not shown) [Compound 3-9, 2-Chloro-4-[4-(3,5-dichlorophenyl)-4-(trifluoromethyl)cyclopenten-1-yl]-N-(1,1-dioxothietan-3-yl)benzamide]
≥ 75%: mortality at 2500 ppm [1] | mortality at 500 ppm [2] | mortality at 500 ppm [3] | mortality at 2500 ppm [4] | mortality at 2500 ppm [5] | mortality at 500 ppm [6] | mortality at 500 ppm [7] | mortality at 2500 ppm [8] | mortality at 2500 ppm [9]

O=C(O)c1ccc(C2=CCC(c3cc(Cl)cc(Cl)c3)(C(F)(F)F)C2)cc1Cl (stereo not shown) [Compound 3-11, 2-Chloro-4-[4-(3,5-dichlorophenyl)-4-(trifluoromethyl)cyclopenten-1-yl]benzoic acid]
≥ 75%: mortality at 2500 ppm [1]

O=C(NC1CS(=O)(=O)C1)c1ccc(C2=CC(c3cc(Cl)cc(Cl)c3)(C(F)(F)F)CC2)cc1Cl (stereo not shown) [Compound 1-11, 2-Chloro-4-[3-(3,5-dichlorophenyl)-3-(trifluoromethyl)cyclopenten-1-yl]-N-(1,1-dioxothietan-3-yl)benzamide]
≥ 75%: mortality at 2500 ppm [1] | mortality at 500 ppm [2] | mortality at 500 ppm [3] | mortality at 2500 ppm [4] | mortality at 2500 ppm [5] | mortality at 500 ppm [6] | mortality at 500 ppm [7] | mortality at 2500 ppm [8] | mortality at 2500 ppm [9]

COC(=O)c1ccc(C2=CC(c3cc(Cl)cc(Cl)c3)(C(F)(F)F)CC2)cc1Cl (stereo not shown) [Compound 1-13, Methyl 2-chloro-4-[3-(3,5-dichlorophenyl)-3-(trifluoromethyl)cyclopenten-1-yl]-benzoate]
≥ 75%: mortality at 2500 ppm [1] | mortality at 500 ppm [2]

O=C(O)c1ccc(C2=CC(c3cc(Cl)cc(Cl)c3)(C(F)(F)F)CC2)cc1Cl (stereo not shown) [Compound 1-12, 2-Chloro-4-[3-(3,5-dichlorophenyl)-3-(trifluoromethyl)cyclopenten-1-yl]benzoic acid]
≥ 75%: mortality at 2500 ppm [1]

O=C(NC1CS(=O)(=O)C1)c1ccc(C2=CC(c3cc(Cl)cc(Cl)c3)(C(F)(F)F)C=C2)cc1Cl (stereo not shown) [Compound 2-12, 2-Chloro-4-[3-(3,5-dichlorophenyl)-3-(trifluoromethyl)cyclopenta-1,4-dien-1-yl]-N-(1,1-dioxothietan-3-yl)benzamide]
≥ 75%: mortality at 2500 ppm [1] | mortality at 500 ppm [2] | mortality at 500 ppm [3] | mortality at 2500 ppm [4] | mortality at 2500 ppm [5] | mortality at 500 ppm [6] | mortality at 500 ppm [7] | mortality at 2500 ppm [8] | mortality at 2500 ppm [9]
